Columns and labels:
[1] = In vitro permeation, vertical Franz diffusion cell; assay type: in vitro ADME; conditions: cellulose nitrate membrane impregnated with lauryl alcohol, PBS pH 7.4 + Tween 80 2% w/w, 37 °C
Experimental: Compounds 1 and 5 were evaluated for their capability to penetrate the artificial membrane simulating the epidermal barrier. Permeation flux was assessed by using vertical Franz diffusion cells.
Compound assay was performed by HPLC (Merck Hitachi Elite LaChrom apparatus, Darmstadt, Germany), equipped with a L-2400 UV–Vis detector and an L-2130 isocratic pump. The mobile phase A was water, and the mobile phase B was methanol. Gradient steps were programmed as follows: A–B 60%–40% at time 0, ramped to 70% B in 3 min, held at 70% for 2 min and returned to initial conditions during 3 min. A Hibar Purospher® RP-8e (150 × 4.6 mm, 5 µm pore size) was the stationary phase. UV detection was performed at 292 nm. The injection volume was 20 µL, the flow rate was 1.2 mL/min and the column temperature was 40 ± 1 °C. Under these conditions, the compounds retention time was 5.30 ± 0.01 min. The method was validated for linearity (r^2 = 0.998; r^2 = 0.997), limit of quantification (3.03 µg/mL; 4.50 µg/mL) and limit of detection (0.91 µg/mL; 1.35 µg/mL) for P293BL and P297, respectively.
In vitro permeation studies were carried out by using vertical Franz diffusion cell (Rofarma, Gaggiano, Italy). […] A correction for the cumulative dilution, due to the sample replacement with an equal volume of fresh medium, was calculated. […]

[2] = target: T1, hA3AR (Homo sapiens, UniProt P0DMS8); experiment: Competition binding, [125I]AB-MECA, hA3 CHO cell membranes; conditions: displacement of [125I]AB-MECA, hA3 CHO cells; mean ± SEM of four assays
T1 construct: host or cells: CHO cells
T1 sequence (P0DMS8 1-318): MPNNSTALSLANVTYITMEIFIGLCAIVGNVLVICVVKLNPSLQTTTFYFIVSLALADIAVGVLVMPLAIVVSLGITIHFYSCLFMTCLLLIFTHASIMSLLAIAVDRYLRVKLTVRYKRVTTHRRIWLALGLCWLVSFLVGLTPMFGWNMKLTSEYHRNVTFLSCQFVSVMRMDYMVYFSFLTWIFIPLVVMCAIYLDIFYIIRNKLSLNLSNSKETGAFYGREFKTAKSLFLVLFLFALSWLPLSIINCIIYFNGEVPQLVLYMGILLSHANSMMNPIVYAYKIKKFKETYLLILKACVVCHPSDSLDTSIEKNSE
Experimental: CHO cells transfected with hA1, hA2A, hA2B and hA3 ARs (Perkin Elmer, Boston, MA, USA) were grown adherently and maintained in Dulbecco’s modified Eagle’s medium with nutrient mixture F12, containing 10% fetal calf serum, penicillin (100 U/mL), streptomycin (100 μg/mL), L-glutamine (2 mM) and geneticine (G418; 0.2 mg/mL), at 37 °C, in 5% CO2/95% air, until their use in cAMP assays. For membrane preparation, the culture medium was removed, and the cells were washed with phosphate-buffered saline and scraped off T75 flasks in ice-cold hypotonic buffer (5 mM Tris HCl, 1 mM EDTA, pH 7.4). The cell suspension was homogenized with a Polytron, centrifuged for 30 min at 40,000× g, at 4 °C, and the resulting membrane pellet was used for competition binding experiments.
All synthesized compounds were tested for their affinity to hA1, hA2A and hA3 ARs. Competition experiments to hA1AR were carried out by incubating 1 nM [^3H]-8-cyclopentyl-1,3-dipropylxanthine ([^3H]-DPCPX) with membrane suspension (50 μg of protein/100 μL) and different concentrations of the examined compounds at 25 °C for 90 min in 50 mM Tris HCl, pH 7.4. Non-specific binding was defined as binding in the presence of 1 μM DPCPX and was always <10% of the total binding. Inhibition experiments to hA2A ARs were performed by incubating the radioligand [^3H]-4-(-2-[7-amino-2-{2-furyl}{1,2,4}triazolo{2,3-a} {1,3,5}triazin-5-yl-amino]ethyl)phenol ([^3H]-ZM241385) (1 nM) with the membrane suspension (50 μg of protein/100 μL) and different concentrations of the examined compounds for 60 min, at 4 °C, in 50 mM Tris HCl (pH 7.4), 10 mM MgCl2. Non-specific binding was determined in the presence of ZM241385 (1 μM) and was about 20% of the total binding. Competition binding experiments to A3ARs were carried out by incubating the membrane suspension (50 μg of protein/100 μL) with 0.5 nM [^125I]-N6-(4-aminobenzyl)-N-methylcarboxamidoadenosine ([^125I]-ABMECA) in the presence of different concentrations of the examined compounds for an incubation time of 120 min, at 4 °C, in 50 mM Tris HCl (pH 7.4), 10 mM MgCl2, 1 mM EDTA. Non-specific binding was defined as binding in the presence of 1 μM ABMECA and was always <10% of the total binding. Bound and free radioactivity were separated by filtering the assay mixture through Whatman GF/B glass-fiber filters, using a Brandel cell harvester (Brandel Instruments, Unterföhring, Germany). The filter bound radioactivity was counted by Packard Tri Carb 2810 TR scintillation counter (Perkin Elmer).
The protein concentration was determined according to a Bio-Rad method, with bovine albumin as a standard reference. Inhibitory binding constant (Ki) values were calculated from those of IC50 according to the Cheng–Prusoff equation, Ki = IC50/(1 + [C*]/KD*), where [C*] is the concentration of the radioligand, and KD* its dissociation constant. Ki and IC50 values were calculated by non-linear regression analysis, using the equation for a sigmoid concentration-response curve (Graph-PAD Prism, San Diego, CA, USA).

| Compound | amount of permeated drug after 24 h [1] [µg/mL] | Ki [2] [µM] |
| --- | --- | --- |
| N#Cc1c(N)nc(SCc2ncc[nH]2)c(C#N)c1-c1cccs1 [Compound 5, 2-Amino-6-[(1H-imidazol-2-ylmethyl)sulfanyl]-4-(thiophen-2-yl)pyridine-3,5-dicarbonitrile] | 22.7 ± 1.0 | 0.025 ± 0.002 |
| N#Cc1c(N)nc(SCc2ncc[nH]2)c(C#N)c1-c1ccco1 [Compound 1, 2-Amino-4-(furan-2-yl)-6-[(1H-imidazol-2-ylmethyl)sulfanyl]pyridine-3,5-dicarbonitrile] | 15.0 ± 1.4 | 0.052 ± 0.005 |
